Laboratory results published in US6770597B2, “Benzohydrazide derivatives as herbicides and desiccant compositions containing them” (Ishihara Sangyo Kaisha, Ltd., priority 2002, dated 2004).

Experiments:
Assay type in all cases: in vivo
[1] = system: common ragweed (Ambrosia artemisiifolia L., AMBEL); test: Greenhouse herbicide screen, pre-emerge application, phytotoxicity rating; settings: PRE emergent, 14 days after application, rating scale 0-100
Outline: (§1)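 Acetone-dissolved compounds are sprayed over pots at 15 to 1000 g ai/ha with a flat fan nozzle 40–45 cm above the target. Pre-emerge pots are top-watered immediately to incorporate; post-emerge pots are bottom-watered. Plants are rated 0–100 after 14 days.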

[2] = system: johnsongrass (Sorghum halepense, SORHA); test: as above; settings: PRE emergent, 14 days after application, rating scale 0-100
Outline: as §1

[3] = system: redroot pigweed (Amaranthus retrofiexus, AMARE); test: as above; settings: PRE emergent, 14 days after application, rating scale 0-100
Outline: as §1

[4] = system: large crabgrass (Digitaria sanguinalis, DIGSA); test: as above; settings: PRE emergent, 14 days after application, rating scale 0-100
Outline: as §1

[5] = system: green foxtail (Setaria viridis, SETVI); test: as above; settings: PRE emergent, 14 days after application, rating scale 0-100
Outline: as §1

[6] = system: barnyardgrass (Echinochloa crus-galli, ECHCG); test: as above; settings: PRE emergent, 14 days after application, rating scale 0-100
Outline: as §1

[7] = system: ivyleaf morningglory (Ipomoea hederacea, IPOHE); test: as above; settings: PRE emergent, 14 days after application, rating scale 0-100
Outline: as §1

[8] = system: sicklepod (Cassia obtusifolia, CASOB); test: as above; settings: PRE emergent, 14 days after application, rating scale 0-100
Outline: as §1

[9] = system: lambsquarters (Chenopodium album, CHEAL); test: as above; settings: PRE emergent, 14 days after application, rating scale 0-100
Outline: as §1

[10] = system: velvetleaf (Abutilon theophrasti, ABUTH); test: as above; settings: PRE emergent, 14 days after application, rating scale 0-100
Outline: as §1

[11] = system: cocklebur (Xanthium strumarium, XANST); test: as above; settings: PRE emergent, 14 days after application, rating scale 0-100
Outline: as §1

[12] = system: upland rice (Oryza sp., var.Cocodrie, RICE); test: Greenhouse herbicide screen, pre-emerge application, crop damage rating; settings: PRE emergent, 14 days after application, rating scale 0-100
Outline: as §1

[13] = system: soybean (Glycine max L., var. Pella 86, SOY); test: as above; settings: PRE emergent, 14 days after application, rating scale 0-100
Outline: as §1

[14] = system: wheat (Triticum aestivum L.); test: as above; settings: PRE emergent, 14 days after application, rating scale 0-100
Outline: as §1

[15] = system: field corn (Zea mays L., var. Dekalb 535, CORN); test: as above; settings: PRE emergent, 14 days after application, rating scale 0-100
Outline: as §1

[16] = system: common ragweed (Ambrosia artemisiifolia L., AMBEL); test: Greenhouse herbicide screen, post-emerge application, phytotoxicity rating; settings: POST emergent, 14 days after application, scale 0-100
Outline: as §1

[17] = system: johnsongrass (Sorghum halepense, SORHA); test: as above; settings: POST emergent, 14 days after application, scale 0-100
Outline: as §1

[18] = system: redroot pigweed (Amaranthus retrofiexus, AMARE); test: as above; settings: POST emergent, 14 days after application
Outline: as §1

[19] = system: large crabgrass (Digitaria sanguinalis, DIGSA); test: as above; settings: POST emergent, 14 days after application, scale 0-100
Outline: as §1

[20] = system: green foxtail (Setaria viridis, SETVI); test: as above; settings: POST emergent, 14 days after application, scale 0-100
Outline: as §1

[21] = system: barnyardgrass (Echinochloa crus-galli, ECHCG); test: as above; settings: POST emergent, 14 days after application, scale 0-100
Outline: as §1

[22] = system: ivyleaf morningglory (Ipomoea hederacea, IPOHE); test: as above; settings: POST emergent, 14 days after application, scale 0-100
Outline: as §1

[23] = system: sicklepod (Cassia obtusifolia, CASOB); test: as above; settings: POST emergent, 14 days after application, scale 0-100
Outline: as §1

[24] = system: lambsquarters (Chenopodium album, CHEAL); test: as above; settings: POST emergent, 14 days after application, scale 0-100
Outline: as §1

[25] = system: velvetleaf (Abutilon theophrasti, ABUTH); test: as above; settings: POST emergent, 14 days after application, scale 0-100
Outline: as §1

[26] = system: cocklebur (Xanthium strumarium, XANST); test: as above; settings: POST emergent, 14 days after application, scale 0-100
Outline: as §1

[27] = system: upland rice (Oryza sp., var.Cocodrie, RICE); test: Greenhouse herbicide screen, post-emerge application, crop damage rating; settings: POST emergent, 14 days after application, scale 0-100
Outline: as §1

[28] = system: soybean (Glycine max L., var. Pella 86, SOY); test: as above; settings: POST emergent, 14 days after application, scale 0-100
Outline: as §1

[29] = system: wheat (Triticum aestivum L.); test: as above; settings: POST emergent, 14 days after application, scale 0-100
Outline: as §1

[30] = system: field corn (Zea mays L., var. Dekalb 535, CORN); test: as above; settings: POST emergent, 14 days after application, scale 0-100
Outline: as §1

Cn1c(C(F)(F)F)cc(=O)n(-c2cc(C(=O)NNC(=O)OC(C)(C)C)c(Cl)cc2F)c1=O [Compound 1-24, 2-chloro-5-(3,6-dihydro-3-methyl-2,6-dioxo-4-(trifluoromethyl)-1(2H)-pyrimidinyl)-4-fluoro-benzoic Acid, 2-(1,1-dimethylethyloxy)carbonyl Hydrazide]
phytotoxicity rating AMBEL ([1]; 63 g ai/ha): 50 | phytotoxicity rating AMBEL ([1]; 250 g ai/ha): 75 | phytotoxicity rating SORHA ([2]; 63 g ai/ha): 0 | phytotoxicity rating SORHA ([2]; 250 g ai/ha): 40 | phytotoxicity rating AMARE ([3]; 63 g ai/ha): 80 | phytotoxicity rating AMARE ([3]; 250 g ai/ha): 99 | phytotoxicity rating DIGSA ([4]; 63 g ai/ha): 0 | phytotoxicity rating DIGSA ([4]; 250 g ai/ha): 40 | phytotoxicity rating SETVI ([5]; 63 g ai/ha): 10 | phytotoxicity rating SETVI ([5]; 250 g ai/ha): 45 | phytotoxicity rating ECHCG ([6]; 63 g ai/ha): 0 | phytotoxicity rating ECHCG ([6]; 250 g ai/ha): 50 | phytotoxicity rating IPOHE ([7]; 63 g ai/ha): 100 | phytotoxicity rating IPOHE ([7]; 250 g ai/ha): 100 | phytotoxicity rating CASOB ([8]; 63 g ai/ha): 50 | phytotoxicity rating CASOB ([8]; 250 g ai/ha): 95 | phytotoxicity rating CHEAL ([9]; 63 g ai/ha): 100 | phytotoxicity rating CHEAL ([9]; 250 g ai/ha): 100 | phytotoxicity rating ABUTH ([10]; 63 g ai/ha): 98 | phytotoxicity rating ABUTH ([10]; 250 g ai/ha): 99 | phytotoxicity rating XANST ([11]; 63 g ai/ha): 50 | phytotoxicity rating XANST ([11]; 250 g ai/ha): 90 | crop damage rating RICE ([12]; 63 g ai/ha): 5 | crop damage rating RICE ([12]; 250 g ai/ha): 30 | crop damage rating SOY ([13]; 63 g ai/ha): 50 | crop damage rating SOY ([13]; 250 g ai/ha): 100 | crop damage rating WHEAT ([14]; 63 g ai/ha): 20 | crop damage rating WHEAT ([14]; 250 g ai/ha): 60 | crop damage rating CORN ([15]; 63 g ai/ha): 0 | crop damage rating CORN ([15]; 250 g ai/ha): 100 | phytotoxicity rating AMBEL ([16]; 63 g ai/ha): 100 | phytotoxicity rating AMBEL ([16]; 250 g ai/ha): 100 | phytotoxicity rating SORHA ([17]; 63 g ai/ha): 35 | phytotoxicity rating SORHA ([17]; 250 g ai/ha): 55 | phytotoxicity rating AMARE ([18]; 63 g ai/ha, scale 0-100 (0 no damage, 100 complete death)): 100 | phytotoxicity rating AMARE ([18]; 250 g ai/ha, scale 0-100): 100 | phytotoxicity rating DIGSA ([19]; 63 g ai/ha): 20 | phytotoxicity rating DIGSA ([19]; 250 g ai/ha): 35 | phytotoxicity rating SETVI ([20]; 63 g ai/ha): 35 | phytotoxicity rating SETVI ([20]; 250 g ai/ha): 60 | phytotoxicity rating ECHCO ([21]; 63 g ai/ha): 35 | phytotoxicity rating ECHCO ([21]; 250 g ai/ha): 50 | phytotoxicity rating IPOHE ([22]; 63 g ai/ha): 100 | phytotoxicity rating IPOHE ([22]; 250 g ai/ha): 100 | phytotoxicity rating CASOB ([23]; 63 g ai/ha): 75 | phytotoxicity rating CASOB ([23]; 250 g ai/ha): 95 | phytotoxicity rating CHEAL ([24]; 63 g ai/ha): 100 | phytotoxicity rating CHEAL ([24]; 250 g ai/ha): 100 | phytotoxicity rating ABUTH ([25]; 63 g ai/ha): 100 | phytotoxicity rating ABUTH ([25]; 250 g ai/ha): 100 | phytotoxicity rating XANST ([26]; 63 g ai/ha): 100 | phytotoxicity rating XANST ([26]; 250 g ai/ha): 100 | crop damage rating RICE ([27]; 63 g ai/ha): 60 | crop damage rating RICE ([27]; 250 g ai/ha): 65 | crop damage rating SOY ([28]; 63 g ai/ha): 8 | crop damage rating SOY ([28]; 250 g ai/ha): 15 | crop damage rating WHEAT ([29]; 63 g ai/ha): 15 | crop damage rating WHEAT ([29]; 250 g ai/ha): 60 | crop damage rating CORN ([30]; 63 g ai/ha): 90 | crop damage rating CORN ([30]; 250 g ai/ha): 95
